Measurements taken from the NIST ThermoML archive (doi:10.1016/j.jct.2004.12.008).
± gives the expanded uncertainty stated by the source.

Test: xn = mol fraction of the nth substance listed
Settings: 101 kPa, Liquid

## O=[N+]([O-])c1ccccc1 [nitrobenzene] + Cc1ccc(C)cc1
293.15 K, x2 = 0
  mass density: 1202.95 ± 2.3 kg/m3
293.15 K, x2 = 0.0587
  mass density: 1179.74 ± 2.1 kg/m3
293.15 K, x2 = 0.1232
  mass density: 1154.82 ± 1.9 kg/m3
293.15 K, x2 = 0.1933
  mass density: 1128.38 ± 1.7 kg/m3
293.15 K, x2 = 0.2516
  mass density: 1106.86 ± 1.6 kg/m3
293.15 K, x2 = 0.3298
  mass density: 1078.63 ± 1.3 kg/m3
293.15 K, x2 = 0.3891
  mass density: 1057.67 ± 1.2 kg/m3
293.15 K, x2 = 0.4423
  mass density: 1039.19 ± 1.1 kg/m3
293.15 K, x2 = 0.4983
  mass density: 1020.04 ± 0.91 kg/m3
293.15 K, x2 = 0.5512
  mass density: 1002.23 ± 0.78 kg/m3
293.15 K, x2 = 0.6242
  mass density: 978.08 ± 0.94 kg/m3
293.15 K, x2 = 0.6943
  mass density: 955.34 ± 1.1 kg/m3
293.15 K, x2 = 0.7523
  mass density: 936.85 ± 1.3 kg/m3
293.15 K, x2 = 0.8211
  mass density: 915.28 ± 1.5 kg/m3
293.15 K, x2 = 0.8723
  mass density: 899.49 ± 1.6 kg/m3
293.15 K, x2 = 0.9421
  mass density: 878.29 ± 1.8 kg/m3
303.15 K, x2 = 0
  mass density: 1193.56 ± 2.2 kg/m3
303.15 K, x2 = 0.0623
  mass density: 1168.84 ± 2 kg/m3
303.15 K, x2 = 0.1123
  mass density: 1149.43 ± 1.9 kg/m3
303.15 K, x2 = 0.1823
  mass density: 1122.85 ± 1.7 kg/m3
303.15 K, x2 = 0.2429
  mass density: 1100.38 ± 1.5 kg/m3
303.15 K, x2 = 0.3189
  mass density: 1072.84 ± 1.3 kg/m3
303.15 K, x2 = 0.3894
  mass density: 1047.9 ± 1.1 kg/m3
303.15 K, x2 = 0.4376
  mass density: 1031.16 ± 0.99 kg/m3
303.15 K, x2 = 0.4889
  mass density: 1013.63 ± 0.86 kg/m3
303.15 K, x2 = 0.5321
  mass density: 999.06 ± 0.76 kg/m3
303.15 K, x2 = 0.6078
  mass density: 973.98 ± 0.97 kg/m3
303.15 K, x2 = 0.6731
  mass density: 952.79 ± 1.1 kg/m3
303.15 K, x2 = 0.7561
  mass density: 926.4 ± 1.4 kg/m3
303.15 K, x2 = 0.8247
  mass density: 905.05 ± 1.6 kg/m3
303.15 K, x2 = 0.8871
  mass density: 885.97 ± 1.7 kg/m3
303.15 K, x2 = 0.9316
  mass density: 872.57 ± 1.8 kg/m3
313.15 K, x2 = 0
  mass density: 1183.36 ± 2.1 kg/m3
313.15 K, x2 = 0.0598
  mass density: 1159.6 ± 1.9 kg/m3
313.15 K, x2 = 0.1342
  mass density: 1130.81 ± 1.7 kg/m3
313.15 K, x2 = 0.1732
  mass density: 1116.05 ± 1.6 kg/m3
313.15 K, x2 = 0.2311
  mass density: 1094.53 ± 1.4 kg/m3
313.15 K, x2 = 0.3239
  mass density: 1060.94 ± 1.2 kg/m3
313.15 K, x2 = 0.3971
  mass density: 1035.18 ± 1 kg/m3
313.15 K, x2 = 0.4576
  mass density: 1014.35 ± 0.86 kg/m3
313.15 K, x2 = 0.514
  mass density: 995.29 ± 0.79 kg/m3
313.15 K, x2 = 0.5672
  mass density: 977.61 ± 0.94 kg/m3
313.15 K, x2 = 0.6234
  mass density: 959.24 ± 1.1 kg/m3
313.15 K, x2 = 0.6831
  mass density: 940.06 ± 1.2 kg/m3
313.15 K, x2 = 0.7421
  mass density: 921.43 ± 1.4 kg/m3
313.15 K, x2 = 0.7901
  mass density: 906.5 ± 1.5 kg/m3
313.15 K, x2 = 0.8611
  mass density: 884.8 ± 1.7 kg/m3
313.15 K, x2 = 0.9287
  mass density: 864.54 ± 1.9 kg/m3
323.15 K, x2 = 0
  mass density: 1172.38 ± 2 kg/m3
323.15 K, x2 = 0.048
  mass density: 1153.29 ± 1.9 kg/m3
323.15 K, x2 = 0.1243
  mass density: 1123.72 ± 1.7 kg/m3
323.15 K, x2 = 0.1892
  mass density: 1099.28 ± 1.5 kg/m3
323.15 K, x2 = 0.2572
  mass density: 1074.3 ± 1.3 kg/m3
323.15 K, x2 = 0.3249
  mass density: 1050.03 ± 1.1 kg/m3
323.15 K, x2 = 0.4023
  mass density: 1022.99 ± 0.91 kg/m3
323.15 K, x2 = 0.4683
  mass density: 1000.47 ± 0.75 kg/m3
323.15 K, x2 = 0.5138
  mass density: 985.24 ± 0.87 kg/m3
323.15 K, x2 = 0.5871
  mass density: 961.14 ± 1.1 kg/m3
323.15 K, x2 = 0.6422
  mass density: 943.39 ± 1.2 kg/m3
323.15 K, x2 = 0.7139
  mass density: 920.72 ± 1.4 kg/m3
323.15 K, x2 = 0.7811
  mass density: 899.92 ± 1.6 kg/m3
323.15 K, x2 = 0.8428
  mass density: 881.17 ± 1.8 kg/m3
323.15 K, x2 = 0.8781
  mass density: 870.6 ± 1.8 kg/m3
323.15 K, x2 = 0.9424
  mass density: 851.62 ± 2 kg/m3
333.15 K, x2 = 0
  mass density: 1160.59 ± 1.9 kg/m3
333.15 K, x2 = 0.0668
  mass density: 1134.27 ± 1.8 kg/m3
333.15 K, x2 = 0.1235
  mass density: 1112.51 ± 1.6 kg/m3
333.15 K, x2 = 0.1983
  mass density: 1084.57 ± 1.4 kg/m3
333.15 K, x2 = 0.2547
  mass density: 1064.03 ± 1.2 kg/m3
333.15 K, x2 = 0.3133
  mass density: 1043.14 ± 1.1 kg/m3
333.15 K, x2 = 0.3942
  mass density: 1015.02 ± 0.84 kg/m3
333.15 K, x2 = 0.4789
  mass density: 986.4 ± 0.85 kg/m3
333.15 K, x2 = 0.5287
  mass density: 969.96 ± 0.99 kg/m3
333.15 K, x2 = 0.5902
  mass density: 950.01 ± 1.2 kg/m3
333.15 K, x2 = 0.6517
  mass density: 930.44 ± 1.3 kg/m3
333.15 K, x2 = 0.7244
  mass density: 907.78 ± 1.5 kg/m3
333.15 K, x2 = 0.7923
  mass density: 887.08 ± 1.7 kg/m3
333.15 K, x2 = 0.8321
  mass density: 875.13 ± 1.8 kg/m3
333.15 K, x2 = 0.8832
  mass density: 860 ± 1.9 kg/m3
333.15 K, x2 = 0.9329
  mass density: 845.51 ± 2 kg/m3
343.15 K, x2 = 0
  mass density: 1147.99 ± 1.9 kg/m3
343.15 K, x2 = 0.0623
  mass density: 1123.65 ± 1.7 kg/m3
343.15 K, x2 = 0.1324
  mass density: 1097.02 ± 1.5 kg/m3
343.15 K, x2 = 0.1824
  mass density: 1078.5 ± 1.3 kg/m3
343.15 K, x2 = 0.2561
  mass density: 1051.86 ± 1.1 kg/m3
343.15 K, x2 = 0.3249
  mass density: 1027.65 ± 0.93 kg/m3
343.15 K, x2 = 0.3867
  mass density: 1006.43 ± 0.77 kg/m3
343.15 K, x2 = 0.4562
  mass density: 983.11 ± 0.87 kg/m3
343.15 K, x2 = 0.5139
  mass density: 964.17 ± 1 kg/m3
343.15 K, x2 = 0.5719
  mass density: 945.49 ± 1.2 kg/m3
343.15 K, x2 = 0.6317
  mass density: 926.6 ± 1.4 kg/m3
343.15 K, x2 = 0.691
  mass density: 908.21 ± 1.5 kg/m3
343.15 K, x2 = 0.7613
  mass density: 886.86 ± 1.7 kg/m3
343.15 K, x2 = 0.8312
  mass density: 866.07 ± 1.9 kg/m3
343.15 K, x2 = 0.8931
  mass density: 848.03 ± 2 kg/m3
343.15 K, x2 = 0.9537
  mass density: 830.69 ± 2.2 kg/m3
353.15 K, x2 = 0
  mass density: 1134.61 ± 1.7 kg/m3
353.15 K, x2 = 0.0479
  mass density: 1116.05 ± 1.6 kg/m3
353.15 K, x2 = 0.1123
  mass density: 1091.72 ± 1.4 kg/m3
353.15 K, x2 = 0.1742
  mass density: 1068.95 ± 1.2 kg/m3
353.15 K, x2 = 0.2498
  mass density: 1041.91 ± 1 kg/m3
353.15 K, x2 = 0.3013
  mass density: 1023.94 ± 0.9 kg/m3
353.15 K, x2 = 0.3781
  mass density: 997.79 ± 0.74 kg/m3
353.15 K, x2 = 0.4538
  mass density: 972.7 ± 0.95 kg/m3
353.15 K, x2 = 0.5247
  mass density: 949.8 ± 1.1 kg/m3
353.15 K, x2 = 0.6149
  mass density: 921.44 ± 1.4 kg/m3
353.15 K, x2 = 0.662
  mass density: 906.96 ± 1.5 kg/m3
353.15 K, x2 = 0.7137
  mass density: 891.32 ± 1.6 kg/m3
353.15 K, x2 = 0.7832
  mass density: 870.68 ± 1.8 kg/m3
353.15 K, x2 = 0.8312
  mass density: 856.69 ± 1.9 kg/m3
353.15 K, x2 = 0.8813
  mass density: 842.3 ± 2.1 kg/m3
353.15 K, x2 = 0.9422
  mass density: 825.1 ± 2.2 kg/m3
